Experimental findings from patent US20210189342A1, “COMPOSITIONS AND METHODS FOR MODULATING MONOCYTE AND MACROPHAGE INFLAMMATORY PHENOTYPES AND IMMUNOTHERAPY USES THEREOF” (Verseau Therapeutics, Inc., priority 2018, published 2021) are described below.

As a reminder, the IC50 is the concentration that gives 50% inhibition.

In the first data set the test system is CD33. Briefly: siRNA dose response, CD33 mRNA knockdown, bDNA Assay. Type of data set: cell-based, human. Conditions: SK-MEL-2, 24 hr. The protocol:
(§1) Dose response curves for siRNAs were generated in vitro using a variety of cell lines according to Table 4.
(§2) Briefly, cells were seeded in 96-well plates and reverse transfected with siRNA, Lipofectamine® 2000 (0.5 uL/well; ThermoFisher), and, in some cases, a reporter plasmid (50 ng/well). The reporter plasmid (psiCHECK™-2, Promega) encoded both firefly luciferase and the gene of interest fused to renilla luciferase; silencing of the gene of interest results in proportional silencing of renilla luciferase but leaves firefly luciferase unaffected as an internal control.
(§3) After 24 hr incubation at 37° C., mRNA knockdown was measured using an endpoint assay. For targets without a reporter plasmid, a branched DNA (bDNA) assay was performed according to the manufacturer's instructions (QuantiGene® Singleplex Gene Expression Assay, ThermoFisher) to measure both the target gene and GAPDH (housekeeping gene) mRNA. Data are plotted as siRNA concentration (nM) vs. remaining mRNA (ratio of target gene to GAPDH, normalized to mock siRNA-transfected cells). For targets with a reporter plasmid, a Dual-Glo® Luciferase Assay was performed according to the manufacturer's instructions (Promega) to measure firefly and renilla luciferase expression. Data are plotted as siRNA concentration (nM) vs. remaining mRNA (ratio of renilla to firefly luminescence, normalized to mock siRNA-transfected cells).
(§4) For all dose response curves, a 4-parameter logistic model was applied to determine the IC50 of each siRNA sequence (Table 5 and FIG. 2). Data shown in Table 5 and FIG. 2 represent the mean of quadruplicates, +/−standard deviation.
“XD-09732: siRNA targeting CD33 (sense 5'-ggccccAGGAcuAcucAcudTsdT-3'; antisense 5'-AGUGAGuAGUCCUGGGGCCdTsdT-3'; as printed in the source, key not given here)” yielded an IC50 of 5.4 nM.

“XD-09734: siRNA targeting CD33 (sense 5'-acuccucGGuGcucAuAAudTsdT-3'; antisense 5'-AUuAUGAGcACCGAGGAGUdTsdT-3'; as printed in the source, key not given here)” had an IC50 of 0.74 nM.

Take “XD-09735: siRNA targeting CD33 (sense 5'-caAcGucAccuAuguuccAdTsdT-3'; antisense 5'-UGGAAcAuAGGUGACGUUGdTsdT-3'; as printed in the source, key not given here)”: half-maximal inhibition (IC50) required 0.818 nM.

For “XD-09736: siRNA targeting CD33 (sense 5'-ucAccuAuGuuccacAGAAdTsdT-3'; antisense 5'-UUCUGUGGAAcAuAGGUGAdTsdT-3'; as printed in the source, key not given here)”, the midpoint of inhibition, the IC50, lay at 0.176 nM.

Substance “XD-09737: siRNA targeting CD33 (sense 5'-cccAAcAAcuGGuaucuuudTsdT-3'; antisense 5'-AAAGAuACcAGUUGUUGGGdTsdT-3'; RNA with 2'-O-methyl and phosphorothioate modifications, case key not given here, as printed in the source, key not given here)” returned an IC50 of 0.334 nM.

“XD-09738: siRNA targeting CD33 (sense 5'-ccAGAGcAGGAGugGuucAdTsdT-3'; antisense 5'-UGAACcACUCCUGCUCUGGdTsdT-3'; RNA with 2'-O-methyl and phosphorothioate modifications, case key not given here, as printed in the source, key not given here)” displayed an IC50 of 0.22 nM.

The next data set concerns LST1. Nature of the data set: siRNA dose response, LST1 mRNA knockdown, bDNA Assay. Conditions: THP-1, 24 hr. The class given is cell-based, human. On the procedure:
as §1, §2, §3, §4
In the case of “XD-09750: siRNA targeting LST1 (sense 5'-cuGAucAuuucGccuAAAAdTsdT-3'; antisense 5'-UUUuAGGCGAAAUGAUcAGdTsdT-3'; RNA with 2'-O-methyl and phosphorothioate modifications, case key not given here, as printed in the source, key not given here)”, half-maximal inhibition (IC50) was put at 3.59 nM.

In turn, “XD-09751: siRNA targeting LST1 (sense 5'-cauuucGccuAAAaGAGcAdTsdT-3'; antisense 5'-UGCUCUUUuAGGCGAAAUGdTsdT-3'; RNA with 2'-O-methyl and phosphorothioate modifications, case key not given here, as printed in the source, key not given here)” gave an IC50 of 1.54 nM.

For the substance “XD-09752: siRNA targeting LST1 (sense 5'-gccuAAAAGAGcAaGGAcudTsdT-3'; antisense 5'-AGUCCUUGCUCUUUuAGGCdTsdT-3'; RNA with 2'-O-methyl and phosphorothioate modifications, case key not given here, as printed in the source, key not given here)”, the IC50 was 0.737 nM.

In turn, “XD-09754: siRNA targeting LST1 (sense 5'-caAGGAGGAuccAaGAGcudTsdT-3'; antisense 5'-AGCUCUUGGAUCCUCCUUGdTsdT-3'; RNA with 2'-O-methyl and phosphorothioate modifications, case key not given here, as printed in the source, key not given here)” had an IC50 of 0.052 nM.

“XD-09755: siRNA targeting LST1 (sense 5'-ggAuccAAGAGcugAcuAudTsdT-3'; antisense 5'-AuAGUcAGCUCUUGGAUCCdTsdT-3'; RNA with 2'-O-methyl and phosphorothioate modifications, case key not given here, as printed in the source, key not given here)”: inhibition was half-maximal at 0.046 nM (IC50).

For “XD-09756: siRNA targeting LST1 (sense 5'-ucucGAGccuccGuucAAAdTsdT-3'; antisense 5'-UUUGAACGGAGGCUCGAGAdTsdT-3'; RNA with 2'-O-methyl and phosphorothioate modifications, case key not given here, as printed in the source, key not given here)”, the IC50 stood at 6.6 nM.

Substance “XD-09758: siRNA targeting LST1 (sense 5'-ugAucAucAucAAaAcuuAdTsdT-3'; antisense 5'-uAAGUUUUGAUGAUGAUcAdTsdT-3'; as printed in the source, key not given here)” yielded an IC50 of 8.21 nM.

The next data set has as its system CCR5. Nature of the data set: siRNA dose response, CCR5 mRNA knockdown, Dual-Glo Luciferase Assay. The class given is cell-based, human. Conditions: Hepal-6 + reporter plasmid, 24 hr. On the procedure: as §1, §2, §3, §4
For “XD-10550: siRNA targeting CCR5 (sense 5'-ggAAcAAGAuGGAuuAucAdTsdT-3'; antisense 5'-UGAuAAUCcAUCUUGUUCCdTsdT-3'; as printed in the source, key not given here)”, the IC50 came out at 0.017 nM.

In the case of “XD-10551: siRNA targeting CCR5 (sense 5'-ccAuAcAGucAGuaucAAudTsdT-3'; antisense 5'-AUUGAuACUGACUGuAUGGdTsdT-3'; as printed in the source, key not given here)”, the IC50 worked out at 0.046 nM.

Regarding “XD-10552: siRNA targeting CCR5 (sense 5'-cauuAAAGAuAGucAucuudTsdT-3'; antisense 5'-AAGAUGACuAUCUUuAAUGdTsdT-3'; as printed in the source, key not given here)”, the IC50 turned out to be 0.07 nM.

Another data set deals with CXorf21. Nature of the data set: siRNA dose response, CXorf21 mRNA knockdown, bDNA Assay. The class given is cell-based, human. To be noted: THP-1, 24 hr. The protocol:
as §1, §2, §3, §4
The substance “XD-10502: siRNA targeting CXorf21 (sense 5'-cuGucAGAAGGGuaucucAdTsdT-3'; antisense 5'-UGAGAuACCCUUCUGAcAGdTsdT-3'; RNA with 2'-O-methyl and phosphorothioate modifications, case key not given here, as printed in the source, key not given here)” had an IC50 of 6.03 nM.

As for “XD-10503: siRNA targeting CXorf21 (sense 5'-cuAcGuGAGcuGcaAAucAdTsdT-3'; antisense 5'-UGAUUUGcAGCUcACGuAGdTsdT-3'; RNA with 2'-O-methyl and phosphorothioate modifications, case key not given here, as printed in the source, key not given here)”, the IC50 is 0.654 nM.

As for “XD-10504: siRNA targeting CXorf21 (sense 5'-gguGAuGGccAuuaAuucAdTsdT-3'; antisense 5'-UGAAUuAAUGGCcAUcACCdTsdT-3'; as printed in the source, key not given here)”, the IC50 stood at 1.76 nM.

“XD-10505: siRNA targeting CXorf21 (sense 5'-cauuAuGGAcAccguGuuudTsdT-3'; antisense 5'-AAAcACGGUGUCcAuAAUGdTsdT-3'; RNA with 2'-O-methyl and phosphorothioate modifications, case key not given here, as printed in the source, key not given here)” registered an IC50 of 13.1 nM.

With “XD-10506: siRNA targeting CXorf21 (sense 5'-gucuGAAcucAucauGAcAdTsdT-3'; antisense 5'-UGUcAUGAUGAGUUcAGACdTsdT-3'; as printed in the source, key not given here)”, inhibition was half-maximal at 0.75 nM (IC50).

With “XD-10508: siRNA targeting CXorf21 (sense 5'-caAuGuAAAuccAuAGAGAdTsdT-3'; antisense 5'-UCUCuAUGGAUUuAcAUUGdTsdT-3'; as printed in the source, key not given here)”, the IC50 came to 1.65 nM.
